Results reported in ChEMBL document CHEMBL5291721, “A preclinical secondary pharmacology resource illuminates target-adverse drug reaction associations of marketed drugs” (Nat Commun, 2023).

Columns and labels:
[1] = target: Neuronal acetylcholine receptor subunit alpha-4 (Homo sapiens, UniProt P43681)
D(3) dopamine receptor = D(3) dopamine receptor (Homo sapiens, UniProt P35462)
Adenosine receptor A1 = target: T1, Adenosine receptor A1 (Homo sapiens, UniProt P30542)
T1 sequence (P30542 whole entry): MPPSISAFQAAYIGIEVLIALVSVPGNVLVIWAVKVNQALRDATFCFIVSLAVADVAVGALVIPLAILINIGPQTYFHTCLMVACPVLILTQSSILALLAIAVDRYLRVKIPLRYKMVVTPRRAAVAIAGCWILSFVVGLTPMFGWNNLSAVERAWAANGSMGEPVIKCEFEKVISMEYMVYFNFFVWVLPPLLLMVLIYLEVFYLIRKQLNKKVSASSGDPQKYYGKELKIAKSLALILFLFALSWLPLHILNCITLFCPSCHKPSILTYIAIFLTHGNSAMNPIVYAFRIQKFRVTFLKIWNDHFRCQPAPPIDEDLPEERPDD

[2] = target: T2, Type-1 angiotensin II receptor (Homo sapiens, UniProt P30556)
T2 sequence (P30556 whole entry): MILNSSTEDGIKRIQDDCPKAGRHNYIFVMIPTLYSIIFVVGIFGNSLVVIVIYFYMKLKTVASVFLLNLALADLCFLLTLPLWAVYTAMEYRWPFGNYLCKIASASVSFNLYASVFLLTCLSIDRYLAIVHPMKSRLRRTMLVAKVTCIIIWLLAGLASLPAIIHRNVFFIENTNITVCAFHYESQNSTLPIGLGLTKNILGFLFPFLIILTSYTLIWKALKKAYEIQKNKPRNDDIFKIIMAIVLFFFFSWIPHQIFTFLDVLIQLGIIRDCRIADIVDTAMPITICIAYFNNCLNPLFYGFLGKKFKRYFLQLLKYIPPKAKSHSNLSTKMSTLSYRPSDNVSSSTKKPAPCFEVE

Melanocortin receptor 3 = Melanocortin receptor 3 (Homo sapiens, UniProt P41968)
Chain of Melanocortin receptor 3 (P41968 whole entry): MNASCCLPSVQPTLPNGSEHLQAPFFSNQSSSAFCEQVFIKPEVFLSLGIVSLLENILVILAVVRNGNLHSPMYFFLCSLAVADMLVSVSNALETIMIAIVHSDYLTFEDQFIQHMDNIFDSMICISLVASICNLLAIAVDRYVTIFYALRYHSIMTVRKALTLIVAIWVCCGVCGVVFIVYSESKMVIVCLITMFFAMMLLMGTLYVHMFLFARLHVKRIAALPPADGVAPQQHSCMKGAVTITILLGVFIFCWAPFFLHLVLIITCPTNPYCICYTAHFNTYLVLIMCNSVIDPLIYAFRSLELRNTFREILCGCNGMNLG

Adenosine receptor A2a = Adenosine receptor A2a (Homo sapiens, UniProt P29274)
Chain of Adenosine receptor A2a (P29274 whole entry): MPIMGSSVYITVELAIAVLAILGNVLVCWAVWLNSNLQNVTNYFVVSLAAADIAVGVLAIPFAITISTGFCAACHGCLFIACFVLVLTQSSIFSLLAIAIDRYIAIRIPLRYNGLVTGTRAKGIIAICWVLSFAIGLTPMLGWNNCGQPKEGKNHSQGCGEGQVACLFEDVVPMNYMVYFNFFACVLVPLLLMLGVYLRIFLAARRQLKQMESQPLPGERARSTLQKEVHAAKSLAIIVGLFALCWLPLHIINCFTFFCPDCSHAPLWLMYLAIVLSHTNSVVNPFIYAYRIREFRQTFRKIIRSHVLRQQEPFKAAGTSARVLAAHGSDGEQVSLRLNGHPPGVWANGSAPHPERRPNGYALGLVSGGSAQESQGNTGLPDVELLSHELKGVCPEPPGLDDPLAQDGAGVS

[3] = target: T3, 5-hydroxytryptamine receptor 2C (Homo sapiens, UniProt P28335)
T3 sequence (P28335 whole entry): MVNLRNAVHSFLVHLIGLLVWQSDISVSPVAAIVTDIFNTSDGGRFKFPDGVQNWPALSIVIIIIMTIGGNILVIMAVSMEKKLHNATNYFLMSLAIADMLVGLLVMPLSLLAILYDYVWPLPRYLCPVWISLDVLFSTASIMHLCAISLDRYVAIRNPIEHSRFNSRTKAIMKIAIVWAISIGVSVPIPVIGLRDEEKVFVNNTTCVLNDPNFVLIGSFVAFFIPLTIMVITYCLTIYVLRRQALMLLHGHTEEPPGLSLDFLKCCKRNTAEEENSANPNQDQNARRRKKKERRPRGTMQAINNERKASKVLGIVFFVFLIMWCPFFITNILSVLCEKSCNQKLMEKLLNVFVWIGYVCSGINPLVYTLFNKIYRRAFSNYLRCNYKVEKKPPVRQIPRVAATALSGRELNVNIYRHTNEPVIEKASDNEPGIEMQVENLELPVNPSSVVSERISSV

[4] = target: Gamma-aminobutyric acid receptor subunit alpha-1 (Rattus norvegicus, UniProt P62813); format: functional
Chain of Gamma-aminobutyric acid receptor subunit alpha-1 (P62813 whole entry): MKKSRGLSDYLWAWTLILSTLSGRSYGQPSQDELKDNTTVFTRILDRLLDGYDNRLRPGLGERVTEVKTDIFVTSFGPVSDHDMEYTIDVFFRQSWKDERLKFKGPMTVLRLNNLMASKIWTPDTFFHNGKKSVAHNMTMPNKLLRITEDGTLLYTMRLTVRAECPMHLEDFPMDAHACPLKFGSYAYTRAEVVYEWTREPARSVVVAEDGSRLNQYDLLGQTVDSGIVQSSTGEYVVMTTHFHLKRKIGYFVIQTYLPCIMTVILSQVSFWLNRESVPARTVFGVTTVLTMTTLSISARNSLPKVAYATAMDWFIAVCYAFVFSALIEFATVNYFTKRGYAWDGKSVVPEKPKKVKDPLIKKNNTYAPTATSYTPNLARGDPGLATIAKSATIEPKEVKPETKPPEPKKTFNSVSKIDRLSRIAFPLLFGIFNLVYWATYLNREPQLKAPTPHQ

[5] = target: T4, Cholecystokinin receptor type A (Homo sapiens, UniProt P32238)
T4 sequence (P32238 whole entry): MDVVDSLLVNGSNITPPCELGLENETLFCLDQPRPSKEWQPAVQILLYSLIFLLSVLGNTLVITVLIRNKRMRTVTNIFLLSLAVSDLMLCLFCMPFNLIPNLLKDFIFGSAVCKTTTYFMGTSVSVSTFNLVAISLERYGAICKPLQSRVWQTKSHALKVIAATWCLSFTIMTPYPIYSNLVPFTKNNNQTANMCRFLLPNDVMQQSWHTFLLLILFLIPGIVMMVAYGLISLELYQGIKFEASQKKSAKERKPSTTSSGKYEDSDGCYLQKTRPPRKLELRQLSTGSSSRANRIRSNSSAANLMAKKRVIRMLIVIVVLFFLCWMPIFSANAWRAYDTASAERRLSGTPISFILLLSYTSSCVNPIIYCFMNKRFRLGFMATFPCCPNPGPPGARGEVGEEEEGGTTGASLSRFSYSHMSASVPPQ

[6] = target: T5, Prostaglandin G/H synthase 1 (Rattus norvegicus, UniProt Q63921); format: functional
T5 sequence (Q63921 whole entry): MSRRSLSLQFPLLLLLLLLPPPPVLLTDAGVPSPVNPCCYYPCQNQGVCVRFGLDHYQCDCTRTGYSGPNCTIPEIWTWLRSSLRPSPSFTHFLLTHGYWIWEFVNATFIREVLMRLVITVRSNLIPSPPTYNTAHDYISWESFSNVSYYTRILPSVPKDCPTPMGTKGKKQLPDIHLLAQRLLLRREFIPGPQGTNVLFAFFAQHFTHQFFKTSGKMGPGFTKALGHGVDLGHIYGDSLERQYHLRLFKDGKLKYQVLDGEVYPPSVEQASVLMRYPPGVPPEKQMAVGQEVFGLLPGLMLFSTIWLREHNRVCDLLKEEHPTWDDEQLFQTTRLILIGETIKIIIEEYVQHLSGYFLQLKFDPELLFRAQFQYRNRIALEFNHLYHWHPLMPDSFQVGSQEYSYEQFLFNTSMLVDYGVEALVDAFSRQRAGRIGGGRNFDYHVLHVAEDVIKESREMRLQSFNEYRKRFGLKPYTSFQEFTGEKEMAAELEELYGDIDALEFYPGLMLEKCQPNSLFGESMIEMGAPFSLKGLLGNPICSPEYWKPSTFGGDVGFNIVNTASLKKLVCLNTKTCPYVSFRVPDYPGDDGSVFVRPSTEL

Measured: AC50
Further: assay procedure not described here.

Chain of Neuronal acetylcholine receptor subunit alpha-4 (P43681 whole entry): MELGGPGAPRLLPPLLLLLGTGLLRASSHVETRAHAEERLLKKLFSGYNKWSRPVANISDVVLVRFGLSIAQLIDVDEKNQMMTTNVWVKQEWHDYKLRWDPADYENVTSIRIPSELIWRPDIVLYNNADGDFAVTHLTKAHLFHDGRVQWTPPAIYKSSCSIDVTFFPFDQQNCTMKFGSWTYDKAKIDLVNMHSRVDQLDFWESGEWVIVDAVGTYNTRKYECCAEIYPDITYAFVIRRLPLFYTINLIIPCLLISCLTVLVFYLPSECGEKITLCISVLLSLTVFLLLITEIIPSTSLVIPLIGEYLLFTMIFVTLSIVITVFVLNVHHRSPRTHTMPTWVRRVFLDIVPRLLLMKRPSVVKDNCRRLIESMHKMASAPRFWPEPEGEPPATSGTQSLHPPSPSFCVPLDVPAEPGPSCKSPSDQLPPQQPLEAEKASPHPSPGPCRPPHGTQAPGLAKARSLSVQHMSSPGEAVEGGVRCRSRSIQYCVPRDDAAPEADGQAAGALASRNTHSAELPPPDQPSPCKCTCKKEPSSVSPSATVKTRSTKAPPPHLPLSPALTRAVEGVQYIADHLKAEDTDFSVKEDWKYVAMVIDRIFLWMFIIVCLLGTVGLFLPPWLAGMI
Chain of D(3) dopamine receptor (P35462 whole entry): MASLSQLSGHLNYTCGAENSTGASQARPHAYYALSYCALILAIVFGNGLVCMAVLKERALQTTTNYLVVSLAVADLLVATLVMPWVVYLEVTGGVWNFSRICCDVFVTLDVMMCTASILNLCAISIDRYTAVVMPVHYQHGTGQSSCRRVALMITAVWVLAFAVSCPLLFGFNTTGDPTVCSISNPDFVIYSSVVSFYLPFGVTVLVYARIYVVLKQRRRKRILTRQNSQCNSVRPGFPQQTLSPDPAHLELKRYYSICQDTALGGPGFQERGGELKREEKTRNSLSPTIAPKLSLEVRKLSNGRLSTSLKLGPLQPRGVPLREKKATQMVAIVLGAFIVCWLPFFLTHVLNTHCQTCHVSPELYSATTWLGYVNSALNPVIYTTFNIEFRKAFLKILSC

OCCN1CCN(CCCN2c3ccccc3C=Cc3ccccc32)CC1 [OPIPRAMOL]
1.32 µM: D(3) dopamine receptor
> 30 µM: all other assays above

CC[C@H](C)C(=O)O[C@H]1C[C@H](O)C=C2C=C[C@H](C)[C@H](CC[C@@H](O)C[C@@H](O)CC(=O)O)[C@H]21 [PRAVASTATIN]
> 30 µM: all assays above

C[C@H]1C[C@@H]2[C@H]([C@@H](O)C[C@@]3(C)[C@H]2CC[C@]3(O)C(=O)CO)[C@@]2(C)C=CC(=O)C=C12 [METHYLPREDNISOLONE]
> 30 µM: D(3) dopamine receptor | [3]
> 10 µM: all other assays above

CNC(=O)c1cc(Oc2ccc(NC(=O)Nc3ccc(Cl)c(C(F)(F)F)c3)cc2)ccn1 [SORAFENIB]
11 µM: [2]
23.2 µM: Melanocortin receptor 3
> 30 µM: all other assays above

NS(=O)(=O)c1cc2c(cc1Cl)NCNS2(=O)=O [HYDROCHLOROTHIAZIDE]
> 10 µM: [1] | D(3) dopamine receptor | [3] | [4]
> 30 µM: all other assays above

NC(=O)c1cnccn1 [PYRAZINAMIDE]
12.6 µM: Melanocortin receptor 3
> 30 µM: all other assays above

CC(C(=O)O)c1ccc(C(=O)c2cccs2)cc1 (stereo not given) [SUPROFEN]
> 30 µM: D(3) dopamine receptor | [3]
0.284 µM: [6]
> 10 µM: all other assays above

CS(=O)(=O)c1ccc([C@@H](O)[C@@H](CO)NC(=O)C(Cl)Cl)cc1 [THIAMPHENICOL]
> 30 µM: all assays above

CC(C(=O)O)c1ccc(N2CC=CC2)c(Cl)c1 (stereo not given) [PIRPROFEN]
> 10 µM: [1] | D(3) dopamine receptor | [4]
> 30 µM: all other assays above

C[C@@H]1O[C@@H]1P(=O)(O)O [FOSFOMYCIN]
> 30 µM: D(3) dopamine receptor | [3]
> 10 µM: all other assays above

CC(C)NNC(=O)c1ccncc1 [IPRONIAZID]
0.45 µM: [6]
> 30 µM: all other assays above

COC(=O)N[C@H](C(=O)N[C@@H](Cc1ccccc1)[C@@H](O)CN(Cc1ccc(-c2ccccn2)cc1)NC(=O)[C@@H](NC(=O)OC)C(C)(C)C)C(C)(C)C [ATAZANAVIR]
17.6 µM: [5]
> 10 µM: [2] | [4] | [6]
> 30 µM: all other assays above

CO/N=C(\C(=O)N[C@@H]1C(=O)N2C(C(=O)[O-])=C(C[N+]3(C)CCCC3)CS[C@H]12)c1csc(N)n1
> 300 µM: all assays above

NC1=NC(=O)C(c2ccccc2)O1 (stereo not given) [PEMOLINE]
> 10 µM: [1] | [4]
> 30 µM: all other assays above

COC(=O)[C@@H]1CC2=CC(=O)CC[C@]2(C)[C@@]23O[C@@H]2C[C@@]2(C)[C@@H](CC[C@@]24CCC(=O)O4)[C@H]13 [EPLERENONE]
> 10 µM: [4]
> 30 µM: all other assays above

O=C(CCCCCCC(=O)Nc1ccccc1)NO [VORINOSTAT]
> 30 µM: all assays above

NC[C@H]1O[C@H](O[C@H]2[C@H](O)[C@@H](O[C@H]3O[C@H](CO)[C@@H](O)[C@H](N)[C@H]3O)[C@H](N)C[C@@H]2N)[C@H](O)[C@@H](O)[C@@H]1O [KANAMYCIN]
> 30 µM: D(3) dopamine receptor | [3]
> 10 µM: all other assays above

COC(=O)C1=C(C)NC(C)=C(C(=O)OCC(C)C)C1c1ccccc1[N+](=O)[O-] (stereo not given) [NISOLDIPINE]
20.4 µM: Adenosine receptor A1
5.5 µM: Adenosine receptor A2a
10 µM: D(3) dopamine receptor
> 30 µM: [3]
> 10 µM: all other assays above
